Measured values from US11109593B2, “Isoxazolin-5-one derivative and herbicide containing same as active ingredient” (HOKKO CHEMICAL INDUSTRY CO., LTD., priority 2017, dated 2021).

Tests used:
Type in all cases: in vivo
[1] = tested on: Echinochloa crus-galli; experiment: Test Example 1: herbicidal effect test by treatment of rice paddy soil (immediately after seeding); conditions: 120 g/10a active ingredient, dry weight vs untreated area, 14 days after treatment
Summary of the method: (§1)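 Applied at 120 g a.i./10 ares as diluted emulsion dropped into flooded (~3 cm) paddy soil pots right after sowing seeds 0–1 cm deep; greenhouse, two replicates. At day 14, dry weight of treated versus untreated plants gives % herbicidal rate.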

[2] = tested on: Scirpus juncoides; experiment: as above; conditions: 120 g/10a active ingredient, dry weight vs untreated area, 14 days after treatment
Summary of the method: as §1

[3] = tested on: broad leaf weeds (Lindernia pyxidaria and Monochoria vaginalis); experiment: as above; conditions: 120 g/10a active ingredient, dry weight vs untreated area, 14 days after treatment
Summary of the method: as §1

[4] = tested on: Echinochloa crus-galli; experiment: Test Example 2: herbicidal effect test by treatment during growing period in paddy rice cultivation (seven days after seeding); conditions: 120 g/10a active ingredient, assessed 14 days after treatment, dry weight vs untreated area
Summary of the method: (§2)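 Post-emergence paddy water application: compounds were formulated as emulsions, diluted and dropped into flooded pots seven days after sowing at a rate equivalent to 120 g per 10 ares. Efficacy was taken as dry-weight reduction relative to untreated controls after 14 days.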

[5] = tested on: Scirpus juncoides; experiment: as above; conditions: 120 g/10a active ingredient, assessed 14 days after treatment, dry weight vs untreated area
Summary of the method: as §2

[6] = tested on: broad leaf weeds (Lindernia pyxidaria and Monochoria vaginalis); experiment: as above; conditions: 120 g/10a active ingredient, assessed 14 days after treatment, dry weight vs untreated area
Summary of the method: as §2

[7] = tested on: Amaranthus viridis; experiment: Test Example 3: herbicidal effect test by treatment of dry field farming soil (one day after seeding); conditions: 120 g/10a active ingredient, evaluated 14 days after treatment
Summary of the method: (§3)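 Dry-field alluvium pots; weed seeds incorporated in top 1 cm; soil spray of diluted emulsion 1 d after seeding, 120 g a.i./10 a in 100 L/10 a. Readout: % reduction of dry weight vs untreated, day 14, duplicates.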

[8] = tested on: Chenopodium album; experiment: as above; conditions: 120 g/10a active ingredient, evaluated 14 days after treatment
Summary of the method: as §3

[9] = tested on: Echinochloa crus-galli; experiment: as above; conditions: 120 g/10a active ingredient, evaluated 14 days after treatment
Summary of the method: as §3

[10] = tested on: southern crabgrass; experiment: as above; conditions: 120 g/10a active ingredient, evaluated 14 days after treatment
Summary of the method: as §3

[11] = tested on: Amaranthus viridis; experiment: Test Example 4: herbicidal effect test by treatment of leave and stem in dry field farming (seven days after seeding); conditions: 120 g/10a active ingredient; emulsion sprayed seven days after seeding; evaluated 14 days after treatment
Summary of the method: (§4)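 Weeds were seeded at 20 seeds per species into the top 1 cm of alluvial upland soil in pots, then sprayed 7 days after seeding with water-diluted emulsifiable concentrate at 100 L/10 a, giving 120 g active ingredient/10 a. Duplicate pots; herbicidal rate (%) was 14 days post-treatment, from dry weight versus untreated.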

[12] = tested on: Chenopodium album; experiment: as above; conditions: 120 g/10a active ingredient; emulsion sprayed seven days after seeding; evaluated 14 days after treatment
Summary of the method: as §4

[13] = tested on: Echinochloa crus-galli; experiment: as above; conditions: 120 g/10a active ingredient; emulsion sprayed seven days after seeding; evaluated 14 days after treatment
Summary of the method: as §4

[14] = tested on: southern crabgrass; experiment: as above; conditions: 120 g/10a active ingredient; emulsion sprayed seven days after seeding; evaluated 14 days after treatment
Summary of the method: as §4

SMILES	Herbicidal rate (%) Echinochloa crus-galli [1] [%]	Herbicidal rate (%) Scirpus juncoides [2] [%]	Herbicidal rate (%) Lindernia pyxidaria [3] [%]	Herbicidal rate (%) Monochoria vaginalis [3] [%]	Herbicidal rate (%) Echinochloa crus-galli [4] [%]	Herbicidal rate (%) Scirpus juncoides [5] [%]	Herbicidal rate (%) Lindernia pyxidaria [6] [%]	Herbicidal rate (%) Monochoria vaginalis [6] [%]	herbicidal rate, Amaranthus viridis [7] [%]	herbicidal rate, Chenopodium album [8] [%]	herbicidal rate, Echinochloa crus-galli [9] [%]	herbicidal rate, southern crabgrass [10] [%]	herbicidal effect (herbicidal rate), Amaranthus viridis [11] [%]	herbicidal effect (herbicidal rate), Chenopodium album [12] [%]	herbicidal effect (herbicidal rate), Echinochloa crus-galli [13] [%]	herbicidal effect (herbicidal rate), southern crabgrass [14] [%]
Cc1c(Cc2ccccc2N(S(=O)(=O)C(F)(F)F)S(=O)(=O)C(F)(F)F)c(=O)on1Cc1ccc(F)cc1 [Compound 1-1014]	90	90	90	100	90	90	80	80	40	40	90	70	40	50	70	40
CCC(c1ccccc1)n1oc(=O)c(Cc2ccccc2N(S(=O)(=O)C(F)(F)F)S(=O)(=O)C(F)(F)F)c1C (stereo not drawn) [Compound 1-1038]	90	90	90	90	90	90	60	80	0	0	90	90	40	40	90	60
CCCC(c1ccccc1)n1oc(=O)c(Cc2ccccc2N(S(=O)(=O)C(F)(F)F)S(=O)(=O)C(F)(F)F)c1C (stereo not drawn) [Compound 1-1039]	90	90	90	80	100	80	70	80	0	0	90	90	40	40	90	90
Cc1c(Cc2ccccc2N(S(=O)(=O)C(F)(F)F)S(=O)(=O)C(F)(F)F)c(=O)on1C(c1ccccc1)C(C)C (stereo not drawn) [Compound 1-1040]	100	90	100	90	100	70	60	60	100	80	100	100	50	40	90	90
CCCCC(c1ccccc1)n1oc(=O)c(Cc2ccccc2N(S(=O)(=O)C(F)(F)F)S(=O)(=O)C(F)(F)F)c1C (stereo not drawn) [Compound 1-1041]	100	90	90	90	90	70	70	70	50	50	70	80	60	40	40	50
Cc1c(Cc2ccccc2N(S(=O)(=O)C(F)(F)F)S(=O)(=O)C(F)(F)F)c(=O)on1C(C)Cc1ccccc1 (stereo not drawn) [Compound 1-1045]	100	90	90	80	90	90	60	90	40	40	90	50	60	0	90	40
